Results on 10 substances are retold here after US7608587B2, “Exendin 4 polypeptide fragment” (Changzhou Pharmaceutical Factory, priority 2005, dated 2009).

One assay relates to Goto Kokizaki II rats. The experiment in a line: insulin secretion stimulation in Goto Kokizaki II rats (ELISA). The class given is in vivo, rat. The settings on record: 5 μg subcutaneous, 0-45 minutes. The protocol:
Six-month-old (470 g body weight) Goto Kokizaki II rats were taken for the operative procedure. The test animals were administrated by subcutaneous injection of Exendin 4 polypeptides in a dose of 5 μg, while the animals of control group only achieved physiological saline solution. 20 μl of blood samples were obtained from fasted animals at 0, 3, 5, 10, 15, 30 and 45 minutes time points respectively after administration of the test substance.
For orientation: In an ELISA, binding on a coated surface is turned into a signal by an enzyme label.

In another assay the test system is diabetic animal models. The experiment in a line: hypoglycemic activity across the diabetic animal models of examples 3-7 (overall statement). The class given is in vivo. The following applies: assays of examples 3, 4, 5, 6, 7. From the text: The effect of hypoglycemic levels of the polypeptide in the present invention is validated with the routine methods in the art, such as the experiments of cell biology, the animal experiments, etc. In embodiments of the present invention, in order to overcome the limitations of the experiments in vitro, preferably employed diabetic animal models to assay the effect of hypoglycemic levels, such as db/db II diabetic mice, Goto-Kokizaki (GK) II type rat, diabetic KK mice, alloxan induced diabetic mice. These animal experiments indicate the Exendin 4 polypeptide fragment represented by formula (I) in the present invention, has a continuous effect of sustaining hypoglycemic activity in vivo and can be used for the diabetes treatment. KK type II diabetic mice (purchased from Shanghai Laboratory Animal Center, Chinese Academy of Sciences, China) with 50 g body weight are subjected to fasting for 2 hours, and are divided into four groups. Two groups are injected with 2 μg Exendin 4, the other two groups are injected with 2 μg Exendin 4 polypeptide fragment presented in the invention. Twenty microliter blood samples are obtained from fasted animals at 0, 0.5, 1, 2, 3, 4, 5 and 6 h time points respectively after administration of the test substance. The sustained hypoglycemic activity is analyzed by using the blood sugar assay kit (purchased from Shanghai Institute of Biological Products, China). The corresponding results of the Exendin 4 polypeptide fragments having the sequences of SEQ ID NO. 1, SEQ ID NO. 2, SEQ ID NO. 3, SEQ ID NO. 4, SEQ ID NO. 5, SEQ ID NO. 6, SEQ ID NO. 7, SEQ ID NO. 8, SEQ ID NO. 9, SEQ ID NO. 10, SEQ ID NO. 11 and SEQ ID NO. 12 are shown in FIG. 7, FIG. 2, FIG. 12, FIG. 17, FIG. 22, FIG. 27, FIG. 32, FIG. 37, FIG. 42, FIG. 47, FIG. 52 and FIG. 57 respectively. The db/db II diabetic mice (purchased from Shanghai Laboratory Animal Center, Chinese Academy of Sciences and Yangzhou University, China) with 50 g body weight are subjected to fasting for 2 hours, the test animals were administrated by subcutaneous injection of Exendin 4 polypeptide fragment in a dose of 2 μg. 20 μl blood samples were obtained from fasted animals at 0, 0.5, 1 and 2 hours time points respectively after administration of the test substance. The sustained hypoglycemic activity is analyzed by using the blood sugar assay kit (purchased from Shanghai Institute of Biological Products, China). The corresponding results of the Exendin 4 polypeptide fragments having the sequences of SEQ ID NO. 1, SEQ ID NO. 2, SEQ ID NO. 3, SEQ ID NO. 4, SEQ ID NO. 5, SEQ ID NO. 6, SEQ ID NO. 7, SEQ ID NO. 8, SEQ ID NO. 9, SEQ ID NO. 10, SEQ ID NO. 11 and SEQ ID NO. 12 are shown in FIG. 8, FIG. 3, FIG. 13, FIG. 18, FIG. 23, FIG. 28, FIG. 33, FIG. 38, FIG. 43, FIG. 48, FIG. 53, FIG. 58 respectively. Five-month-old (body weight 470 g) Goto Kokizaki diabetic rat (purchased from Shanghai Laboratory Animal Center, Chinese Academy of Sciences, China) are taken for the operative procedure. After subjecting to fasting for 2 hours, the test animals were administrated by intraperitoneal injection of 20% glucose in a dose of 1 ml and by subcutaneous injection of Exendin 4 polypeptide fragment in a dose of 5 μg. The control group received only glucose. Twenty microliter blood samples were obtained from fasted animals at 0, 0.5, 1 and 2 hours time points respectively after administration of the test substance. The sustained hypoglycemic activity is determined by using the blood sugar assay kit (purchased from Shanghai Institute of Biological Products, China). The curve 1 indicates the control group. The curve 2 indicates the administration group. Eight-week-old (20 g body weight) mice are taken for the operative procedure. Experimental diabetes in mice was induced by (16 mg/ml) 0.1 ml alloxan by tail vein injection. Animals are divided into five groups. 48 hours later, 2 μg Exendin 4 polypeptide fragment was injected. […]

For the substance “SEQ ID NO. 68: solid phase Exendin 4 polypeptide variant of example 8; sequence not printed in the text (HGEGTYTSNLSKQIEEEAVKLFIEWLKNGP; Exendin 4 polypeptide fragment)”, the “insulin secretion of the test group” value in the assay on Goto Kokizaki II rats is “recovered”. Also, the “hypoglycemic activity (in words)” value in the assay with diabetic animal models is on record as “significant hypoglycemic activity”.
Regarding “SEQ ID NO. 72: solid phase Exendin 4 polypeptide variant of example 8; sequence not printed in the text (HGEGTYTSNLSKQLEEEAVKLFIEWLKNGP; Exendin 4 polypeptide fragment)”, the “insulin secretion of the test group” value in the assay on Goto Kokizaki II rats is listed as “recovered”. Besides, the “hypoglycemic activity (in words)” value in the assay on diabetic animal models is recorded as “significant hypoglycemic activity”.
Taken in the same sequence, the figures for “SEQ ID NO. 64: solid phase Exendin 4 polypeptide variant of example 8; sequence not printed in the text (HGEGTYTSNLSKQMEEEAVKLFIEWLKNGP; Exendin 4 polypeptide fragment)” were “recovered” and “significant hypoglycemic activity”.
For “SEQ ID NO. 66: solid phase Exendin 4 polypeptide variant of example 8; sequence not printed in the text (HGEGTYTSNLSKQIEEEAVKLFIEWLKNGGP; Exendin 4 polypeptide fragment)” the same measures were “recovered” and “significant hypoglycemic activity”.
Taken in the same sequence, the figures for “SEQ ID NO. 70: solid phase Exendin 4 polypeptide variant of example 8; sequence not printed in the text (HGEGTYTSNLSKQLEEEAVKLFIEWLKNGGP; Exendin 4 polypeptide fragment)” were “recovered” and “significant hypoglycemic activity”.
“SEQ ID NO. 71: solid phase Exendin 4 polypeptide variant of example 8; sequence not printed in the text (HGEGTFTSNLSKQLEEEAVKLFIEWLKNGP; Exendin 4 polypeptide fragment)”: the “insulin secretion of the test group” value in the assay with Goto Kokizaki II rats is “recovered”. Further, the “hypoglycemic activity (in words)” value in the assay with diabetic animal models is “significant hypoglycemic activity”.
As to “SEQ ID NO. 65: solid phase Exendin 4 polypeptide variant of example 8; sequence not printed in the text (HGEGTFTSNLSKQIEEEAVKLFIEWLKNGGP; Exendin 4 polypeptide fragment)”, the “insulin secretion of the test group” value in the assay with Goto Kokizaki II rats is “recovered”. In addition, the “hypoglycemic activity (in words)” value in the assay with diabetic animal models is given as “significant hypoglycemic activity”.
As to “SEQ ID NO. 67: solid phase Exendin 4 polypeptide variant of example 8; sequence not printed in the text (HGEGTFTSNLSKQIEEEAVKLFIEWLKNGP; Exendin 4 polypeptide fragment)”, the “insulin secretion of the test group” value with Goto Kokizaki II rats is “recovered”. Also, in the assay on diabetic animal models, the “hypoglycemic activity (in words)” value was “significant hypoglycemic activity”.
For “SEQ ID NO. 62: solid phase Exendin 4 polypeptide variant of example 8; sequence not printed in the text (HGEGTYTSNLSKQMEEEAVKLFIEWLKNGGP; Exendin 4 polypeptide fragment)” the same measures were “recovered” and “significant hypoglycemic activity”.
Consider “SEQ ID NO. 69: solid phase Exendin 4 polypeptide variant of example 8; sequence not printed in the text (HGEGTFTSNLSKQLEEEAVKLFIEWLKNGGP; Exendin 4 polypeptide fragment)”, for which the “insulin secretion of the test group” value with Goto Kokizaki II rats is “recovered”. Besides, in the assay with diabetic animal models, the “hypoglycemic activity (in words)” value was “significant hypoglycemic activity”.
